According to PMC3430621, “HPLC–MS/MS Analysis of a Traditional Chinese Medical Formulation of Bu-Yang-Huan-Wu-Tang and Its Pharmacokinetics after Oral Administration to Rats” (PLoS ONE, 2012):
Read-outs that look alike come from different tables or passages of the source.

Key:
[1] = Pharmacokinetics in conscious freely moving rats after oral administration of BYHWT extract (HPLC-MS/MS of plasma); format: in vivo, Sprague-Dawley rats; conditions: for Cl / Cmax / Tmax / half-life: male, Sprague-Dawley
From the text: The protocol listed below has been reviewed and approved by the Institutional Animal Care and Use Committee (IACUC; approval number 1010409) by the Institutional Animal Experimentation Committee of the National Yang-Ming University. Male pathogen-free Sprague-Dawley rats (250±50 g body weight) were obtained from the Laboratory Animal Center of National Yang Ming University. The animals had free access to food (Laboratory rodent diet 5P14, PMI Feeds, Richmond, IN, USA) and water was allowed at all times. All animal experiments followed the National Yang-Ming University guidelines and procedures for the care of laboratory animals. […] Experimental rats were initially anesthetized with pentobarbital (50 mg/kg, i.p.), and polyethylene tubing was implanted in the right jugular vein for blood sampling. The tube crossed the subcutaneous tissue and was fixed at its exit from the dorsal neck region. The patency tubing was maintained by filling with heparinized saline (20 units/mL). After surgery, the rats were placed in experimental cages and allowed to recuperate for one day. The rats were kept fasted for 12 h and water were available ad libitum before the BYHWT administration. […] In our study, the dose of BYHWT (10 g/kg) was appropriate for oral administration in rats. […] The condensed blood collection in the absorption phase is to figure out the maximum concentration and the time when it reaches the maximum concentration. The time points in the elimination phase are not close. This strategy is commonly used in the pharmacokinetic studies but the total blood consumption should not be over 20% of body blood. In these experimental rats, the total blood sampling volume is within 20% during 12 h. Plasma was separated by centrifuging the blood sample at 6000 rpm for 10 min at 4°C. […] The samples were vortexed and centrifuged at 16,100×g for 10 min. In our micro-analysis, less than 200 μL is needed. Actually, the collected blood volume is around 120-150 μL for each time point. After centrifugation, the plasma samples (50 μL) were vortex-mixed with 100 μL of acetonitrile. The supernatants were collected and filtered. Around 20 μL aliquot of the supernatants was transferred into the vial for analysis by HPLC-MS/MS system. The acetonitrile but not the real sample was used in the needle pre-wash standard procedure [19]. The LC-MS/MS system consisted of an Agilent 1100 series LC with automatic liquid chromatographic sampler, injector, bi-pump and degasser; and Applied Biosystems/MDS Sciex API 3000 tandem quadrupole mass spectrometry equipped with electrospray ionization (ESI) interface using the following parameters: nebulizer gas (NEB):10, curtain gas (CUR): 7, collisionally activated dissociation gas (CAD): 12, ionspray voltage (IS): 5000 V, turbo ionspray temperature (TEM): 450°C. Nitrogen was used in all cases. The mass spectrometer was operated in the positive ion detection mode. […] The following linear gradient program was applied to the analyte with the mobile phase consisting of methanol (0.1% formic acid, solvent A) and NH4OAc (0.1% formic acid, solvent B): 0-1 min: 30-70% A; 1-2 min 70-90%; 2-8 min: 90-90%; 8-9 min: 90-30%, 9-18 min: 30-30%, v/v. […] The flow rate was maintained at […]. Pharmacokinetic parameters including maximum plasma concentration (Cmax), time to reach the maximum concentrations (Tmax), half-life (t1/2), area under concentration-time curve (AUC) and oral clearance (CL) were estimated by a non-compartmental analysis using the pharmacokinetic program, WinNonlin Standard Edition Version 1.1 (Scientific Consulting, Apex, NC, USA). All results were expressed as average mean ± standard deviation (S.D.). ANOVA was used to evaluate differences, and a value of P<0.05 was taken as statistically significant.

[2] = Stability of the analytes in rat plasma samples (freeze-thaw, short-term, long-term, autosampler); format: in vitro ADME; conditions: n = 3; for Stability (%) Autosampler stability: autosampler 8°C 12 h; for Stability (%) Short-term stability: room temperature 6 h; for Stability (%) Freeze-thaw stability: three freeze-thaw cycles; for Stability (%) Long-term stability: −20°C 14 days
Procedure: Stability was also assessed using the low, medium and high concentrations of analytes. Freeze-thaw stability was assessed over three freeze-thaw cycles. Short-term stability was determined by placing the samples at room temperature for 6 h. Long-term stability was evaluated by analyzing samples kept at −20°C for 14 days. Autosampler stability was determined by maintaining the samples at the autosampler temperature (8°C) for 12 h. All stabilities were calculating as the ratio of average concentration and freshly prepared samples.

[3] = rat plasma, BYHWT extract 10 g/kg p.o.
[4] = po, rat plasma, BYHWT extract 10 g/kg p.o., n = 6, read-out: Cmax
[5] = po, rat plasma, BYHWT extract 10 g/kg p.o., n = 6, read-out: Tmax (converted)
[6] = po, rat plasma, BYHWT extract 10 g/kg p.o., n = 6, read-out: t1/2

Stability (%) Autosampler stability ([2]; concentration 1 (µg/mL))	Stability (%) Short-term stability ([2]; concentration 1 (µg/mL))	Stability (%) Freeze-thaw stability ([2]; concentration 1 (µg/mL))	Stability (%) Long-term stability ([2]; concentration 1 (µg/mL))	Stability (%) Autosampler stability ([2]; concentration 10 (µg/mL))	Stability (%) Short-term stability ([2]; concentration 10 (µg/mL))	Stability (%) Freeze-thaw stability ([2]; concentration 10 (µg/mL))	Stability (%) Long-term stability ([2]; concentration 10 (µg/mL))	Stability (%) Autosampler stability ([2]; concentration 100 (µg/mL))	Stability (%) Short-term stability ([2]; concentration 100 (µg/mL))	Stability (%) Freeze-thaw stability ([2]; concentration 100 (µg/mL))	Stability (%) Long-term stability ([2]; concentration 100 (µg/mL))	absorption phase in the plasma concentration-time curve [1, 3]	Cmax [1, 4]	Tmax [1, 5]	half-life [1, 6]	SMILES	further results
13±10%	2.4±12%	4.4±3.6%	8.7±10%	−0.3±11%	−1.3±1.9%	−2.3±0.8%	−0.8±16%	−5.4±13%	−6.8±5.7%	0.4±1.2%	1.7±21%	–	–	–	–	CC(=O)O[C@H]1[C@H](O[C@H]2CC[C@]34C[C@]35CC[C@]3(C)[C@@H]([C@@]6(C)CC[C@@H](C(C)(C)O)O6)[C@@H](O)C[C@@]3(C)[C@@H]5C[C@H](O[C@@H]3O[C@H](CO)[C@@H](O)[C@H](O)[C@H]3O)[C@H]4C2(C)C)OC[C@@H](O)[C@@H]1O [Astragaloside II, astragaloside II]	Cl ([1]; rat, in vivo, po): 129 ± 15 mL/min/kg; Cmax ([1]; rat, in vivo, po, 10 g/kg): 30 ± 4.9 ng/mL; Tmax ([1]; rat, in vivo, po, 10 g/kg): 0.617 h; half-life ([1]; rat, in vivo, po, 10 g/kg): 3.53 ± 0.233 h; AUC ([1]; rat, in vivo, po, 10 g/kg): 190 ± 38.3 ng·h/mL
–	–	–	–	–	–	–	–	–	–	–	–	–	–	–	–	O=c1[nH]cnc2nc[nH]c12 [hypoxanthine]	observed in rat plasma after oral administration of BYHWT ([1]; preliminary experiments): could not be observed
−5.3±7.9%	−3.6±8.0%	4.6±3.6%	−14±17%	4.3±6.6%	−4.1±10%	3.8±2.7%	−8.3±2.3%	−4.9±7.0%	−6.4±6.4%	−1.8±5.4%	−27±12%	–	–	–	–	CC(=O)OC1C(O)COC(OC2CCC34CC35CCC3(C)C(C6(C)CCC(C(C)(C)O)O6)C(O)CC3(C)C5CC(OC3OC(CO)C(O)C(O)C3O)C4C2(C)C)C1OC(C)=O (stereo not shown) [Astragaloside I, astragaloside I]	Cl ([1]; rat, in vivo, po): 90.5 ± 14 mL/min/kg; Cmax ([1]; rat, in vivo, po, 10 g/kg): 55 ± 7.8 ng/mL; Tmax ([1]; rat, in vivo, po, 10 g/kg): 0.667 h; half-life ([1]; rat, in vivo, po, 10 g/kg): 2.77 ± 0.467 h; AUC ([1]; rat, in vivo, po, 10 g/kg): 277 ± 43.3 ng·h/mL
2.0±10%	14±11%	8.7±5.9%	6.7±10%	13±7.2%	11±10%	2.7±2.2%	5.0±14%	−1.6±10%	12±7.5%	6.5±1.4%	23±12%	double-peak absorption phase	7.8 ± 0.2 ng/mL	0.75 h	4.45 ± 0.02 h	CCC/C=C1\OC(=O)C2=C1CCC=C2 [Ligustilide, ligustilide]	–
−8.4±12%	2.5±11%	5.8±6.1%	6.4±12%	2.1±9.1%	7.3±12%	4.9±3.5%	23±13%	3.5±7.9%	−0.1±0.9%	7.0±1.2%	20±12%	single and plateau absorption phase	18 ± 4.1 ng/mL	0.533 h	5.63 ± 2.2 h	COc1ccc(-c2coc3cc(O[C@@H]4O[C@H](CO)[C@@H](O)[C@H](O)[C@H]4O)ccc3c2=O)cc1O [Calycosin-7-O-β-D-glucoside, calycosin-7-O-β-D-glucoside]	–
–	–	–	–	−3.5±11%	1.4±11%	9.6±4.7%	2.5±5.7%	−2.2±3.5%	14±12%	8.6±3.8%	17±5.2%	single and plateau absorption phase	1230 ± 171 ng/mL	0.667 h	1.25 ± 0.183 h	COc1ccc(-c2coc3cc(O)ccc3c2=O)cc1O [Calycosin, calycosin]	AUC ([1]; rat plasma, BYHWT extract 10 g/kg p.o., n = 6): 5130 ± 1220 ng·h/mL; Stability (%) Autosampler stability ([2]; concentration 1000 (µg/mL)): 7.1±4.9%; Stability (%) Short-term stability ([2]; concentration 1000 (µg/mL)): 13±7.3%; Stability (%) Freeze-thaw stability ([2]; concentration 1000 (µg/mL)): 2.9±4.5%; Stability (%) Long-term stability ([2]; concentration 1000 (µg/mL)): 21±12%

SMILES	Stability (%) Autosampler stability ([2]; concentration 1 (µg/mL))	Stability (%) Short-term stability ([2]; concentration 1 (µg/mL))	Stability (%) Freeze-thaw stability ([2]; concentration 1 (µg/mL))	Stability (%) Long-term stability ([2]; concentration 1 (µg/mL))	Stability (%) Autosampler stability ([2]; concentration 10 (µg/mL))	Stability (%) Short-term stability ([2]; concentration 10 (µg/mL))	Stability (%) Freeze-thaw stability ([2]; concentration 10 (µg/mL))	Stability (%) Long-term stability ([2]; concentration 10 (µg/mL))	Stability (%) Autosampler stability ([2]; concentration 100 (µg/mL))	Stability (%) Short-term stability ([2]; concentration 100 (µg/mL))	Stability (%) Freeze-thaw stability ([2]; concentration 100 (µg/mL))	Stability (%) Long-term stability ([2]; concentration 100 (µg/mL))	absorption phase in the plasma concentration-time curve [1, 3]	Cmax [1, 4]	Tmax [1, 5]	half-life [1, 6]	further results
CC(C)(O)[C@@H]1CC[C@](C)([C@H]2[C@@H](O)C[C@@]3(C)[C@@H]4C[C@H](O[C@@H]5O[C@H](CO)[C@@H](O)[C@H](O)[C@H]5O)[C@H]5C(C)(C)[C@@H](O[C@@H]6OC[C@@H](O)[C@H](O)[C@H]6O)CC[C@@]56C[C@@]46CC[C@]23C)O1 [Astragaloside IV, astragaloside IV]	3.8±9.8%	12±15%	−3.2±5.0%	−17±5.3%	3.3%	4.7±6.2%	−4.1±3.4%	−6.3±8.8%	−8.6±12%	1.6±9.1%	6.1±0.4%	2.1±13.5%	double-peak absorption phase	–	–	–	Cmax ([1]; in vivo, po, rat plasma, BYHWT extract 10 g/kg p.o., n = 6, read-out: Cmax): 100 ± 16 ng/mL; Tmax ([1]; in vivo, po, rat plasma, BYHWT extract 10 g/kg p.o., n = 6, read-out: Tmax (converted)): 0.583 h; half-life ([1]; in vivo, po, rat plasma, BYHWT extract 10 g/kg p.o., n = 6, read-out: t1/2): 2.83 ± 0.138 h
